Assay results reported in patent publication US20070173462A1, “Treatment of diseases associated with the use of antibiotics” (Optimer Pharmaceuticals, Inc., priority 2004, published 2007).
Converted amounts (≈) assume the structure as drawn.

Key:
[1] = test system: Bacteroides fragilis group; test: microbe, parasite or virus in culture; format: cell-based; settings: clinical gastrointestinal isolates, n=54
[2] = test system: Non-spore forming Gram positive rods; test: organism not typed; format: cell-based; settings: clinical gastrointestinal isolates, n=64
[3] = test system: C. ramosum; test: microbe, parasite or virus in culture; format: cell-based; settings: clinical isolates, n=10
[4] = test system: C. clostridioforme; test: organism not typed; format: cell-based; settings: clinical isolates, n=5
[5] = test system: C. perfringens; test: microbe, parasite or virus in culture; format: cell-based
[6] = test system: Streptococcus sp.; test: microbe, parasite or virus in culture; format: cell-based; settings: clinical gastrointestinal isolates, n=9
[7] = test system: Stephylococcus sp.; test: organism not typed; format: cell-based; settings: clinical gastrointestinal isolates, n=19
[8] = test system: Eschericia coli; test: organism not typed; format: cell-based; settings: clinical gastrointestinal isolates, n=10
[9] = test system: C. innocuum; test: microbe, parasite or virus in culture; format: cell-based; settings: clinical isolates, n=9
[10] = test system: Other Clostridium sp.; test: microbe, parasite or virus in culture; format: cell-based; settings: clinical isolates, n=11
[11] = test system: Proteus mirabilis; test: microbe, parasite or virus in culture; format: cell-based; settings: clinical gastrointestinal isolates, n=10
[12] = test system: Enterobacter sp.; test: microbe, parasite or virus in culture; format: cell-based; settings: Enterobacter; clinical gastrointestinal isolates, n=20
[13] = test system: Other anaerobic Gram negative rods; test: organism not typed; format: cell-based; settings: clinical gastrointestinal isolates, n=51
[14] = test system: Veillonella sp.; test: microbe, parasite or virus in culture; format: cell-based; settings: Veillonella; clinical gastrointestinal isolates, n=10
[15] = test system: Enterococcus sp.; test: microbe, parasite or virus in culture; format: cell-based; settings: clinical gastrointestinal isolates, n=22
[16] = test system: C. paraputrificum; test: microbe, parasite or virus in culture; format: cell-based; settings: clinical isolates, n=10
[17] = test system: C. bolteae; test: microbe, parasite or virus in culture; format: cell-based; settings: clinical isolates, n=6
[18] = test system: C. glycolicum; test: microbe, parasite or virus in culture; format: cell-based; settings: clinical isolates, n=9
[19] = test system: Klebsiella sp.; test: microbe, parasite or virus in culture; format: cell-based; settings: clinical gastrointestinal isolates, n=10
[20] = test system: Streptococcus milleri group; test: microbe, parasite or virus in culture; format: cell-based; settings: clinical gastrointestinal isolates, n=14
[21] = test system: Clostridium difficile; test: MIC, 207 clinical isolates of C. difficile; format: cell-based; settings: clinical isolates, n=207
From the text: Compound I was additionally tested against anaerobic clinical isolates and against aerobic bacteria. […] The compound was also active against clinical strains of Staphylococcus sp. and Enterococcus sp.

[22] = test system: Anaerobic Gram positive cocci; test: organism not typed; format: cell-based; settings: clinical gastrointestinal isolates, n=49
[23] = test system: C. difficile; test: microbe, parasite or virus in culture; format: cell-based; settings: clinical isolates, n=23
[24] = test system: C. sordellii; test: microbe, parasite or virus in culture; format: cell-based; settings: clinical isolates, n=5
[25] = test system: Pseudomonas aeruginosa; test: microbe, parasite or virus in culture; format: cell-based; settings: clinical gastrointestinal isolates, n=10
[26] = test system: toxigenic C. difficile; test: Hamster model of clindamycin-induced Clostridium difficile associated diarrhea/colitis; format: in vivo, Syrian hamsters; settings: oral treatment for 7 days; untreated infection uniformly fatal between days two and six
Protocol: Animals were treated with two oral doses of clindamycin at 100 mg/kg. Three days after the second dose of clindamycin, they were inoculated with toxigenic C. difficile spores. […] Animals were observed daily for the presence or absence of diarrhea. Necropsies were performed on some animals that died during the experiment, and cecal contents were assayed for C. difficile toxin A. Hamsters were monitored for 20 days, and the cumulative mortality during this period was recorded (FIG. 1).

CN[C@H](CC(C)C)C(=O)N[C@H]1C(=O)N[C@@H](CC(N)=O)C(=O)N[C@H]2C(=O)N[C@H]3C(=O)N[C@H](C(=O)N[C@H](C(=O)O)c4cc(O)cc(O)c4-c4cc3ccc4O)[C@H](O)c3ccc(c(Cl)c3)Oc3cc2cc(c3O[C@@H]2O[C@H](CO)[C@@H](O)[C@H](O)[C@H]2O[C@H]2C[C@](C)(N)[C@H](O)[C@H](C)O2)Oc2ccc(cc2Cl)[C@H]1O [Vancomycin]
MIC50 ([1]; Bacteroides fragilis): 64 µg/mL (≈ 44.2 µM)
MIC90 ([1]; Bacteroides fragilis): 128 µg/mL (≈ 88.3 µM)
Range (MIC) [1]: 16 to 256 µg/mL
MIC50 [2]: 128 µg/mL (≈ 88.3 µM)
MIC90 [2]: > 1020 µg/mL
MIC50 ([3]; Thomasclavelia ramosa): 4 µg/mL (≈ 2.76 µM)
MIC90 ([3]; Thomasclavelia ramosa): 8 µg/mL (≈ 5.52 µM)
Range (MIC) [3]: 4 to 8 µg/mL
MIC50 [4]: 1 µg/mL (≈ 0.69 µM)
MIC90 [4]: 8 µg/mL (≈ 5.52 µM)
Range (MIC) [4]: 1 to 8 µg/mL
Range (MIC) [5]: 0.5-1^ μg/mL
MIC50 ([5]; Clostridium perfringens): 1 µg/mL (≈ 0.69 µM)
MIC90 ([5]; Clostridium perfringens): 1 µg/mL (≈ 0.69 µM)
MIC50 ([6]; Streptococcus): 0.5 µg/mL (≈ 0.345 µM)
MIC90 ([6]; Streptococcus): 1 µg/mL (≈ 0.69 µM)
Range (MIC) [6]: 0.5 to 1 µg/mL
MIC50 [7]: 2 µg/mL (≈ 1.38 µM)
MIC90 [7]: 4 µg/mL (≈ 2.76 µM)
Range (MIC) [7]: 1 to 4 µg/mL
MIC50 [8]: 512 µg/mL (≈ 353 µM)
MIC90 [8]: > 1020 µg/mL
MIC50 ([9]; [Clostridium] innocuum): 16 µg/mL (≈ 11 µM)
MIC90 ([9]; [Clostridium] innocuum): 16 µg/mL (≈ 11 µM)
Range (MIC) [9]: 8 to 16 µg/mL
MIC50 ([10]; Clostridium): 1 µg/mL (≈ 0.69 µM)
MIC90 ([10]; Clostridium): 16 µg/mL (≈ 11 µM)
Range (MIC) [10]: 1 to 64 µg/mL
MIC50 ([11]; Proteus mirabilis): > 1020 µg/mL
MIC90 ([11]; Proteus mirabilis): > 1020 µg/mL
Range (MIC) [11]: >1024 µg/mL
MIC50 [12]: > 1020 µg/mL
MIC90 [12]: > 1020 µg/mL
MIC50 [13]: 512 µg/mL (≈ 353 µM)
MIC90 [13]: > 1020 µg/mL
MIC50 [14]: 512 µg/mL (≈ 353 µM)
MIC90 [14]: 512 µg/mL (≈ 353 µM)
MIC50 ([15]; Enterococcus): 1 µg/mL (≈ 0.69 µM)
MIC90 ([15]; Enterococcus): 4 µg/mL (≈ 2.76 µM)
Range (MIC) [15]: 0.5-4 ^ μg/mL
MIC50 ([16]; Clostridium paraputrificum): 2 µg/mL (≈ 1.38 µM)
MIC90 ([16]; Clostridium paraputrificum): 2 µg/mL (≈ 1.38 µM)
Range (MIC) [16]: 1 to 2 µg/mL
MIC50 ([17]; Enterocloster bolteae): 16 µg/mL (≈ 11 µM)
MIC90 ([17]; Enterocloster bolteae): 16 µg/mL (≈ 11 µM)
Range (MIC) [17]: 1 to 16 µg/mL
MIC50 ([18]; Terrisporobacter glycolicus): 1 µg/mL (≈ 0.69 µM)
MIC90 ([18]; Terrisporobacter glycolicus): 1 µg/mL (≈ 0.69 µM)
Range (MIC) [18]: 0.5-1^ μg/mL
MIC50 ([19]; Klebsiella): > 1020 µg/mL
MIC90 ([19]; Klebsiella): > 1020 µg/mL
Range (MIC) [19]: >1024 µg/mL
MIC50 ([20]; Streptococcus milleri): 1 µg/mL (≈ 0.69 µM)
MIC90 ([20]; Streptococcus milleri): 1 µg/mL (≈ 0.69 µM)
Range (MIC) [20]: 1 µg/mL
MIC90 ([21]; Clostridioides difficile): 0.5 µg/mL (≈ 0.345 µM)
MIC50 ([21]; Clostridioides difficile, read-out: MIC50): 0.5 µg/mL (≈ 0.345 µM)
Range (MIC) [21]: 0.0156-0.5
MIC50 [22]: 1 µg/mL (≈ 0.69 µM)
MIC90 [22]: 8 µg/mL (≈ 5.52 µM)
MIC50 ([23]; Clostridioides difficile): 1 µg/mL (≈ 0.69 µM)
MIC90 ([23]; Clostridioides difficile): 2 µg/mL (≈ 1.38 µM)
Range (MIC) [23]: 0.5-4^ μg/mL
MIC50 ([24]; Paraclostridium sordellii): 1 µg/mL (≈ 0.69 µM)
MIC90 ([24]; Paraclostridium sordellii): 1 µg/mL (≈ 0.69 µM)
Range (MIC) [24]: 1 µg/mL
MIC50 [25]: > 1020 µg/mL
MIC90 [25]: > 1020 µg/mL
protection from infection (cumulative mortality over 20 days) [26]: protected the animals from infection
